Reference: ChEMBL document CHEMBL4219159, “A genetically selected cyclic peptide inhibitor of BCL6 homodimerization” (Bioorg Med Chem, 2018)
Calls of active or inactive are those of the source. The rule behind the calls is not given here. Where a SMILES comes first, the peptide text is derived from it.

Columns and labels:
[1] = molecular target: T1, B-cell lymphoma 6 protein (Homo sapiens, UniProt P41182); experiment: Binding affinity to recombinant N-terminal GST-tagged/RED-NHS labelled wild-type BCL6 BTB domain (5 to 129 residues) (unknown origin) expressed in Escherichia coli Rosetta BL21 (DE3) at 1 mM incubated for 30 mins under dark condition in by single-point microscale thermophoresis method
[2] = test system: B-cell lymphoma 6 protein (Homo sapiens), P41182 [C8Q,C67R,C84N]; experiment: Stabilization of recombinant BCL6 BTB domain (unknown origin) C8Q/C67R/C84N triple mutant expressed in Escherichia coli Rosetta BL21 (DE3) assessed as change in melting temperature measured every 30 secs by SYPRO orange dye based thermal shift assay
[3] = molecular target: T1, B-cell lymphoma 6 protein; experiment: Binding affinity to recombinant N-terminal GST-tagged/RED-NHS labelled wild-type BCL6 BTB domain (5 to 129 residues) (unknown origin) expressed in Escherichia coli Rosetta BL21 (DE3) incubated for 30 mins under dark condition in presence of DTT by microscale thermophoresis method
[4] = molecular target: T1, B-cell lymphoma 6 protein; experiment: Stabilization of recombinant N-terminal GST-tagged wild-type BCL6 BTB domain (5 to 129 residues) (unknown origin) expressed in Escherichia coli Rosetta BL21 (DE3) assessed as change in melting temperature measured every 30 secs by SYPRO orange dye based thermal shift assay
[5] = test system: B-cell lymphoma 6 protein (Homo sapiens), P41182 [C8Q,C67R,C84N]; experiment: Binding affinity to recombinant RED-NHS labelled BCL6 BTB domain (unknown origin) C8Q/C67R/C84N triple mutant expressed in Escherichia coli Rosetta BL21 (DE3) assessed as decrease in SMRT2 peptide binding incubated for 30 mins under dark condition by microscale thermophoresis method relative to control
[6] = molecular target: T1, B-cell lymphoma 6 protein; experiment: Binding affinity to recombinant N-terminal GST-tagged/RED-NHS labelled wild-type BCL6 BTB domain (5 to 129 residues) (unknown origin) expressed in Escherichia coli Rosetta BL21 (DE3) incubated for 30 mins under dark condition by microscale thermophoresis method; conditions: read-out: Kd(app)
[7] = molecular target: B-cell lymphoma 6 protein (Homo sapiens, UniProt P41182, C67R/C84N/C8Q); experiment: Binding affinity to recombinant RED-NHS labelled BCL6 BTB domain (unknown origin) C8Q/C67R/C84N triple mutant expressed in Escherichia coli Rosetta BL21 (DE3) incubated for 30 mins under dark condition by microscale thermophoresis method; conditions: read-out: Kd(app)
[8] = test system: B-cell lymphoma 6 protein (Homo sapiens), P41182 [C8Q,C67R,C84N]; experiment: Inhibition of recombinant BCL6 C8Q/C67R/C84N triple mutant BTB domain dimerization (unknown origin) expressed in Escherichia coli Rosetta BL21 (DE3) at 500 uM by size exclusion chromatographic method
[9] = test system: B-cell lymphoma 6 protein (Homo sapiens), P41182 [C8Q,C67R,C84N]; experiment: Binding affinity to recombinant RED-NHS labelled BCL6 BTB domain (unknown origin) C8Q/C67R/C84N triple mutant expressed in Escherichia coli Rosetta BL21 (DE3) incubated for 30 mins under dark condition in presence of DTT by microscale thermophoresis method

For `CC[C@@H](C)[C@@H]1NC(=O)[C@H](CS)NC(=O)[C@H](C(C)C)NC(=O)[C@H](C)NC(=O)[C@H](Cc2ccc(O)cc2)NC(=O)[C@H](Cc2ccc(O)cc2)NC1=O`, the Activity [1] was “inactive”.
`CC[C@@H](C)[C@@H]1NC(=O)[C@H](CS)NC(=O)[C@H](C(C)C)NC(=O)[C@H](CS)NC(=O)[C@H](Cc2ccc(O)cc2)NC(=O)[C@H](C)NC1=O` was tested, and the Activity [1] was “Active”.
In the case of `CC[C@@H](C)[C@@H]1NC(=O)[C@H](CS)NC(=O)[C@H](C(C)C)NC(=O)[C@H](CS)NC(=O)[C@H](Cc2ccc(O)cc2)NC(=O)[C@H](Cc2ccc(O)cc2)NC1=O`, the Activity [2] is reported as “Dose-dependent effect”, the Activity [3] is reported as “inactive” and the Activity [4] is reported as “Dose-dependent effect”. For the same compound, the fold change (FC) [5] was 3, the Kd [6] was 142 µM and the Activity [1] was “Active”. For the same compound, the Kd [7] was 50 µM, the inhibition [8] was “Active” and the Activity [9] was “inactive”.
With `CC(C)[C@@H]1NC(=O)[C@H](CS)NC(=O)[C@H](Cc2ccc(O)cc2)NC(=O)[C@H](Cc2ccc(O)cc2)NC(=O)[C@H](C)NC(=O)[C@H](CS)NC1=O` (cyclo(AYYCVC)) the Activity [1] was “Active”.
With `CC[C@@H](C)[C@@H]1NC(=O)[C@H](CS)NC(=O)[C@H](C)NC(=O)[C@H](CS)NC(=O)[C@H](Cc2ccc(O)cc2)NC(=O)[C@H](Cc2ccc(O)cc2)NC1=O` the Activity [1] was “Active”.
With `CC[C@@H](C)[C@@H]1NC(=O)[C@H](C)NC(=O)[C@H](C(C)C)NC(=O)[C@H](CS)NC(=O)[C@H](Cc2ccc(O)cc2)NC(=O)[C@H](Cc2ccc(O)cc2)NC1=O` the Activity [1] was “inactive”.
`CC[C@@H](C)[C@@H]1NC(=O)[C@H](CS)NC(=O)[C@H](C(C)C)NC(=O)[C@H](CS)NC(=O)[C@H](C)NC(=O)[C@H](Cc2ccc(O)cc2)NC1=O` was tested, and the Activity [1] was “inactive”.
